Results reported in patent US6440986B2, “HIV Inhibiting pyrimidine derivatives” (Janssen Pharmaceutica, N.V., priority 1998, dated 2002).
Read-outs that look alike come from different tables or passages of the source.

What was measured:
HIV-1 = test: in vitro anti-HIV assay: inhibition of the HIV-induced cytopathic effect in MT-4 cells (MTT); format: cell-based; settings: OD 540 nm
Protocol: (§1) A rapid, sensitive and automated assay procedure was used for the in vitro evaluation of anti-HIV agents. An HIV-1 transformed T4-cell line, MT-4, which was previously shown (Koyanagi et al., Int. J. Cancer, 36, 445-451, 1985) to be highly susceptible to and permissive for HIV infection, served as the target cell line. Inhibition of the HIV-induced cytopathic effect was used as the end point. The viability of both HIV- and mock-infected cells was assessed spectrophotometrically via the in situ reduction of 3-(4,5-dimethylthiazol-2-yl)-2,5-diphenyltetrazolium bromide (MTT). […] The percent protection achieved by the compound in HIV-infected cells was calculated by the following formula: [formula]
(§2) whereby (ODT)HIV is the optical density measured with a given concentration of the test compound in HIV-infected cells; (ODC)HIV is the optical density measured for the control untreated HIV-infected cells: (ODC)MOCK is the optical density measured for the control untreated mock-infected cells; all optical density values were determined at 540 nm. […] The ratio of CC50 to IC50 was defined as the selectivity index (SI).

[1] = cytotoxicity in mock-infected MT-4 cells (MTT); format: cell-based; settings: human, mock-infected MT-4 cells, 50% cytotoxic concentration; reduces absorbance of mock-infected MT-4 control by 50%; MTT
Protocol: as §1, with “An HIV-1 transformed T4-cell line, MT-4, which was previously shown (Koyanagi et al., Int. J. Cancer, 36, 445-451, 1985) to be highly susceptible to and permissive for HIV infection, served as the target cell line.” left out
as §2

[2] = system: MT-4 cells (mock-infected); test: cytotoxicity in mock-infected MT-4 cells (MTT); format: cell-based
Protocol: as §1, with “An HIV-1 transformed T4-cell line, MT-4, which was previously shown (Koyanagi et al., Int. J. Cancer, 36, 445-451, 1985) to be highly susceptible to and permissive for HIV infection, served as the target cell line.” left out
as §2

[3] = Human immunodeficiency virus 1, MT4, dose achieving 50% protection of HIV-infected MT-4 cells against cytopathic effect
[4] = dose achieving 50% protection of HIV-infected MT-4 cells against cytopathic effect
[5] = 50% cytotoxic concentration, reduces absorbance of mock-infected MT-4 control by 50%, MTT, read-out: CC50

| SMILES | IC50 (HIV-1; [4]) | CC50 [2] | also measured |
| --- | --- | --- | --- |
| N#Cc1ccc(Nc2nc(Cc3c(Cl)cccc3Cl)cc(NCCCO)n2)cc1 [Compound 3, 4-[[4-[(2,6-dichloro-phenyl)methyl]-6-[(3-hydroxypropyl)amino]-2-pyrimidinyl]amino]benzonitrile] |  |  | IC50 (HIV-1; [3]): 16 nM; CC50 [1]: 37400 nM |
| N#Cc1ccc(Nc2nc(Cc3c(Cl)cccc3Cl)cc(NCCN3CCCC3)n2)cc1 [Compound 13, 4-[[4-[(2,6-dichloro-phenyl)methyl]-6-[[2-(1-pyrrolidinyl)ethyl]amino]-2-pyrimidinyl]amino]benzonitrile] |  |  | IC50 (HIV-1; [3]): 5 nM; CC50 [1]: 7800 nM; melting point: 80 to 85 °C |
| N#Cc1ccc(Nc2cc(Cc3c(Cl)cccc3Cl)nc(NCCCN3CCCC3=O)n2)cc1 [Compound 39, 4-[[6-[(2,6-dichloro-phenyl)methyl]-2-[[3-(2-oxo-1-pyrrolidinyl)propyl]amino]-4-pyrimidinyl]amino]benzonitrile] |  |  | IC50 (HIV-1; [3]): 1530 nM; CC50 [1]: > 100000 nM |
| Cc1cc(C)c(Nc2ccnc(Nc3ccc(C#N)cc3)n2)c(C)c1 [Compound 52, 4-[[4-[(2,4,6-trimethylphenyl)amino]-2-pyrimidinyl]amino]benzonitrile] |  |  | IC50 (HIV-1; [3]): 1 nM; CC50 [1]: 2080 nM |
| Cc1cc(C)c(Oc2ccnc(Nc3ccc(C#N)cc3)n2)c(C)c1 [Compound 58, 4-[[4-(2,4,6-trimethylphenoxy)-2-pyrimidinyl]amino]benzonitrile] |  |  | IC50 (HIV-1; [3]): 2.9 nM; CC50 [1]: > 100000 nM |
| Cc1cc(Br)c(Nc2ccnc(Nc3ccc(C#N)cc3)n2)c(Br)c1 [Compound 61, 4-[[4-[(2,6-dibromo-4-methylphenyl)amino]-2-pyrimidinyl]amino]benzonitrile] |  |  | IC50 (HIV-1; [3]): 0.7 nM; CC50 [1]: 100 nM |
| N#Cc1ccc(Nc2nccc(Nc3c(Cl)cc(C(F)(F)F)cc3Cl)n2)cc1 [Compound 66, 4-[[4-[[2,6-dichloro-4-(trifluoromethyl)-phenyl]amino]-2-pyrimidinyl]amino]benzonitrile] |  |  | IC50 (HIV-1; [3]): 8.5 nM; CC50 [1]: 19900 nM |
| N#Cc1ccc(Nc2nccc(Nc3c(Cl)cc(F)cc3Br)n2)cc1 [Compound 67] | 2.4 nM | 400 nM |  |
| Cc1cc(Cl)cc(Cl)c1Nc1ccnc(Nc2ccc(C#N)cc2)n1 [Compound 68] | 1 nM | 1400 nM |  |
| Cc1cc(C#N)cc(C)c1Nc1ccnc(Nc2ccc(C#N)cc2)n1 [Compound 69, 4-[[2-[(cyanophenyl)amino]-4-pyrimidinyl]amino]-3,5-dimethylbenzonitrile] | 0.4 nM |  | CC50 [2, 5]: 4700 nM |
| N#Cc1ccc(Nc2nccc(Nc3c(F)cc(Br)cc3Br)n2)cc1 [Compound 70] | 0.6 nM | 5800 nM |  |
| Cc1cc(C)c(N(C)c2ccnc(Nc3ccc(C#N)cc3)n2)c(C)c1 [Compound 71] | 6.3 nM | 45800 nM |  |
| N#Cc1ccc(Nc2nccc(Nc3c(Cl)cc(Cl)cc3Cl)n2)cc1 [Compound 72] | 0.7 nM | 500 nM |  |
| Cc1cc(C)c(Sc2ccnc(Nc3ccc(C#N)cc3)n2)c(C)c1 [Compound 73] | 3.6 nM | > 100000 nM |  |
| Cc1cc(Cl)cc(Br)c1Oc1ccnc(Nc2ccc(C#N)cc2)n1 [Compound 74] | 10 nM | > 100000 nM |  |
| Cc1cc(Cl)cc(C)c1Nc1ccnc(Nc2ccc(C#N)cc2)n1 [Compound 75] | 2.1 nM | 1900 nM |  |
| N#Cc1ccc(Nc2nccc(Nc3c(Cl)cc(C#N)cc3Cl)n2)cc1 [Compound 76] | 3.3 nM | 5200 nM |  |
| N#Cc1ccc(Nc2nccc(Nc3c(Cl)cc(OC(F)(F)F)cc3Cl)n2)cc1 [Compound 77] | 3 nM | 9600 nM |  |
| N#Cc1ccc(Nc2nccc(Nc3c(Cl)cc(Br)c(Cl)c3Br)n2)cc1 [Compound 78] | 2.8 nM | 400 nM |  |
| CCCc1cc(Br)c(Nc2ccnc(Nc3ccc(C#N)cc3)n2)c(Br)c1 [Compound 79] | 3.1 nM | 4800 nM |  |
| Cc1cc(C(C)(C)C)cc(C)c1Nc1ccnc(Nc2ccc(C#N)cc2)n1 [Compound 80] | 11 nM | 8700 nM |  |
| Cc1cc(C#N)cc(C)c1Oc1ccnc(Nc2ccc(C#N)cc2)n1 [Compound 81] | 1.1 nM | > 100000 nM |  |

| SMILES | IC50 (HIV-1; [4]) | CC50 [2] | also measured |
| --- | --- | --- | --- |
| Cc1cnc(Nc2ccc(C#N)cc2)nc1Nc1c(C)cc(Cl)cc1C [Compound 82] | 2.6 nM | 400 nM |  |
| Cc1cnc(Nc2ccc(C#N)cc2)nc1Nc1c(C)cc(C(C)(C)C)cc1C [Compound 84] | 12 nM | 9300 nM |  |
| Cc1cnc(Nc2ccc(C#N)cc2)nc1Nc1c(C)cc(Br)cc1C [Compound 85] | 2 nM | 400 nM |  |
| Cc1cc(C)c(Sc2nc(Nc3ccc(C#N)cc3)ncc2C)c(C)c1 [Compound 86] | 10 nM | > 100000 nM |  |
| CCCc1cc(Br)c(Nc2nc(Nc3ccc(C#N)cc3)ncc2C)c(Br)c1 [Compound 87] | 3.1 nM | 2200 nM |  |
| Cc1cnc(Nc2ccc(C#N)cc2)nc1Nc1c(Br)cc(C(C)C)cc1Br [Compound 88] | 2.7 nM | 2100 nM |  |
| Cc1cnc(Nc2ccc(C#N)cc2)nc1Nc1c(C)cc(C#N)cc1C [Compound 89, 4-[[2-[(4-cyanophenyl)amino]-5-methyl-4-pyrimidinyl]amino]-3,5-dimethylbenzonitrile] |  |  | IC50 (HIV-1; [3]): 0.7 nM; CC50 [1]: 400 nM |
| Cc1cc(C)c(Nc2ccnc(Nc3ccc(C#N)cc3N)n2)c(C)c1 [Compound 90] | 3400 nM | 30800 nM |  |
| Cc1cc(C)c(Nc2ccnc(Nc3ccc(C#N)c(O)c3)n2)c(C)c1 [Compound 91] | 2.5 nM | 4900 nM |  |
| Clc1cccc(Cl)c1Nc1ccnc(Nc2c(Cl)cccc2Cl)n1 [Compound 92] | 45000 nM | > 90000 nM |  |
| Cc1cc(C)c(Nc2nccc(Nc3ccc(C#N)cc3)n2)c(C)c1 [Compound 93] | 3.5 nM | 48100 nM |  |
| Cc1cc(C)c(Nc2cc(N)nc(Nc3ccc(C#N)cc3)n2)c(C)c1 [Compound 94] | 2.2 nM | 11100 nM |  |
| Cc1cc(C)c(Nc2cc(Nc3ccc(C#N)cc3)nc(N)n2)c(C)c1 [Compound 95] | 0.6 nM | 7700 nM |  |
| Cc1cc(C)c(Nc2ccnc(Nc3ccc(Cl)cc3)n2)c(C)c1 [Compound 96] | 3.1 nM | 5800 nM |  |
| Cc1cc(C)c(Nc2ccnc(Nc3ccc(F)cc3F)n2)c(C)c1 [Compound 97] | 32 nM | 13200 nM |  |
| Cc1cc(C)c(Nc2ccnc(Nc3ccc(Br)cn3)n2)c(C)c1 [Compound 98] | 2000 nM | 13800 nM |  |
| Cc1cc(C)c(Nc2ccnc(Nc3ccc(C(N)=O)cc3)n2)c(C)c1 [Compound 100, 4-[[4-[(2,4,6-trimethylphenyl)amino]-2-pyrimidinyl]amino]benzamide] |  |  | IC50 (HIV-1; [3]): 75 nM; CC50 [1]: 800 nM |
| Cc1cc(C)c(Nc2ccnc(Nc3ccc(C(N)=O)c(N)c3)n2)c(C)c1 [Compound 101] | 53 nM | 29500 nM |  |
| Cc1cc(C)c(Nc2ccnc(Nc3ccc(C#N)c(N)c3)n2)c(C)c1 [Compound 102] | 8.2 nM |  | CC50 [2, 5]: 500 nM |
| Cc1c(N)nc(Nc2ccc(CC#N)cc2)nc1Cc1c(Cl)cccc1Cl [Compound 103] | 22 nM | > 100000 nM |  |
| N#Cc1ccc(Nc2nccc(NCc3ccccc3)n2)cc1 [Compound 104] | 3.4 nM | 18600 nM |  |
